Test results published in publication PMC10224356, “Trisubstituted 1,3,5-Triazines as Histamine H4 Receptor Antagonists with Promising Activity In Vivo” (Molecules, 2023).

Key:
[1] = biological target: T1, human histamine H4 receptor (Homo sapiens, UniProt Q9H3N8); experiment: [3H]histamine displacement assay, membranes of Sf9 cells expressing hH4R with Gαi2 and Gβ1γ2; type: binding; details: for Ki: Sf9 membranes, mean within 95% CI
T1 construct: made in house; host or cells: Sf9 cells (membrane preparations)
Protocol: The affinity of compounds 2–20 for hH4R was evaluated in a binding assay as previously described. [^3H]Histamine was used as a radioligand and hH4R was expressed in Sf9 cells with G protein Gαi2 and Gβ1γ2 subunits. The pharmacological results represented as Ki values are listed in Table 1 (for alicyclic derivatives) and Table 2 (for aliphatic derivatives). […] Results depended on the substituent in the four positions of a triazine (a main structure).
Affinities of all triazine derivatives were determined in a [^3H] histamine (f.c. 10 nM) displacement assay using membrane preparations from Sf9 cells expressing human H4R and co-expressed with Gαi2 and Gβ1γ2 subunits as described previously. Nonspecific binding was determined in the presence of unlabelled JNJ7777120 ([…]).

hH4R [2] = biological target: T2, hH4R (Homo sapiens, UniProt Q9H3N8); experiment: β-arrestin recruitment assay (LiveBLAzer, Tango-H4-bla U2OS cells); type: cell-based; design: expressed in transfected cells; host or cells: Tango-H4-bla U2OS cells; details: for IC50 / β-arrestin hH4R % of max. Antagonist Activity at 10 µM: antagonist mode; for IC50: histamine 500 nM (EC80), Tango-H4-bla U2OS cells, read-out: β-arrestin hH4R IC50 ± SEM; for Kb: calculated from IC50 by Leff–Dougall variant of Cheng–Prusoff equation, read-out: pKb β-arrestin ± SEM (converted)
Protocol: Compounds were tested using LiveBLAzer^TM assay and Tango-H4-bla U2OS cells, allowing the estimation of the percentage of β-arrestin recruitment in response to tested treatments.
All used media and reagents except DMSO and tested compounds were purchased from ThermoFisher Scientific, Waltham, MA, USA. DMSO was from CarlRoth (Karlsruhe, Germany) and histamine was from Sigma Aldrich (Darmstadt, Germany). […] The day before the experiment cells were collected from the culture flask with trypsin and seeded in 384 well black-wall, clear-bottom plate (PerkinElmer, Waltham, MA, USA) in concentration 10,000 cells/well in FreeStyle medium. After 24 h of incubation, the cells were checked under the microscope and the dilutions of tested compounds were prepared and added to the wells. In agonist mode compounds were added to the wells and plates were placed in the incubator (HERAcell240, Heraeus, Hanau, Germany) for 16 h. In antagonist mode, first, the compounds were added to the wells, plates were incubated for 30 min, then histamine solution (corresponding to EC80—500 nM) was added and plates were put in the incubator for 16 h. After this time β-lactamase substrate mixture was prepared and added to wells (8 µL/well). Cells were incubated for 2 h at room temperature in the dark then the signal was read using an EnSpire microplate reader (PerkinElmer, Waltham, MA, USA). Drawing of dose-dependent curves and IC50 calculation for compounds were made using GraphPad Prism 6 (GraphPad Software, San Diego, CA, USA).

hH4R [3] = biological target: T2, hH4R; experiment: cAMP accumulation assay (LANCE Ultra cAMP, CHO-K1 cells stably expressing hH4R); type: cell-based; design: expressed in transfected cells; details: for IC50: antagonist mode, forskolin 10 µM, histamine 140 nM, CHO-K1 hH4R cells, read-out: cAMP hH4R IC50 ± SEM; for Kb: calculated from IC50 by Leff–Dougall variant of Cheng–Prusoff equation, read-out: pKb cAMP ± SEM (converted)
Protocol: Intrinsic activity via the Gα subunit was measured using a LANCE Ultra cAMP detection kit and CHO-K1 cells stably expressing hH4R. Adenyl cyclase was stimulated by forskolin (10 µM).
Intrinsic activity in G protein-dependent pathway was measured with homogenous TR-FRET immunoassay, using LANCE Ultra cAMP kit and CHO-K1 H4R cell line or γ-irradiated recombinant CHO-K1 H4R cells (all from PerkinElmer). […] If the CHO-K1 H4R cell line was used it had been cultivated in DMEM/F12 10% FBS 400 µg/mL geneticin and passaged three times a week. […] The antagonist activity was measured in a white, opaque, 384-well microplate (PerkinElmer) with a total volume of 20 µL. […] After incubation, 5 µL of europium chelate-labelled cAMP tracer and 5 µl of ULight-labelled anti-cAMP mAb working solutions were added, mixed and incubated for 1 h. TR-FRET signal was read using a microplate reader (PerkinElmer, Waltham, MA, USA).

hH4R [4] = biological target: T2, hH4R; experiment: as above; type: cell-based; design: expressed in transfected cells; details: antagonist mode

T2 sequence (Q9H3N8 whole entry): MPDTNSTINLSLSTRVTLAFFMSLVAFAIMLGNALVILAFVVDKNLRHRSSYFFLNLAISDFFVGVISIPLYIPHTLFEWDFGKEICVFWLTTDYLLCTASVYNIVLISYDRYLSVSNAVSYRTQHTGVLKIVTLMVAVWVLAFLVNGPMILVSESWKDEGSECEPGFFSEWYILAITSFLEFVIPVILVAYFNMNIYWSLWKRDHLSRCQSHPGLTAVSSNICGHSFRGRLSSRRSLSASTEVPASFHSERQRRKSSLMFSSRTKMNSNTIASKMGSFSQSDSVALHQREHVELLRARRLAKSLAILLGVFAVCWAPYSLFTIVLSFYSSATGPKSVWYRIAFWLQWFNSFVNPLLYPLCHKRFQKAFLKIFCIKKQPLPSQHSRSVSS
T1 sequence (Q9H3N8 whole entry): as above

Compound | inhibition at 1 µM ([1]; per cent of inhibition at 1 μM, read-out: hH4R inh. at 1 μM) | melting point | IC50 (hH4R [2]) | β-arrestin hH4R % of max. Antagonist Activity at 10 µM (hH4R [2]) | Ki [1] | IC50 (hH4R [3]) | Kb (hH4R [3]) | Kb (hH4R [2]) | cAMP hH4R % of max. Antagonist Activity at 10 µM (hH4R [4])
CC/C=C/Cc1nc(N)nc(N2CCN(C)CC2)n1 [Compound 20, (E)-4-(4-Methylpiperazin-1-yl)-6-(pent-2-enyl)-1,3,5-triazin-2-amine] | 6% | 117 to 119 °C | 376 ± 9 nM | 101% |  |  |  |  | 
CN1CCN(c2nc(N)nc(C3CC3)n2)CC1 [Compound 2, 4-Cyclopropyl-6-(4-methylpiperazin-1-yl)-1,3,5-triazin-2-amine] |  | 156 to 159 °C | 287 ± 30 nM | 96% | 574 nM | 847 ± 53 nM | 302 nM | 47.9 nM | 99%
CCCCCc1nc(N)nc(N2CCN(C)CC2)n1 [Compound 19, 4-(4-Methylpiperazin-1-yl)-6-pentyl-1,3,5-triazin-2-amine] |  | 173 to 178 °C | 34.9 ± 7 nM | 99% | 393 nM | 419 ± 77 nM | 145 nM | 5.62 nM | 97%
C=CCCc1nc(N)nc(N2CCN(C)CC2)n1 [Compound 16, 4-(But-3-enyl)-6-(4-methylpiperazin-1-yl)-1,3,5-triazin-2-amine] |  | 132 to 133 °C | 146 ± 38 nM | 94% | 319 nM | 635 ± 123 nM | 219 nM | 23.4 nM | 104%
CN1CCN(c2nc(N)nc(C3CCCCC3)n2)CC1 [Compound 5, 4-Cyclohexyl-6-(4-methylpiperazin-1-yl)-1,3,5-triazin-2-amine] |  | 133 to 138 °C | 101 ± 10 nM | 92% | 432 nM | 219 ± 24 nM | 75.9 nM | 16.6 nM | 98%
CC(C)CCc1nc(N)nc(N2CCN(C)CC2)n1 [Compound 14, 4-Isopentyl-6-(4-methylpiperazin-1-yl)-1,3,5-triazin-2-amine] |  | 123 to 126 °C | 24 ± 3 nM | 101% | 203 nM | 43 ± 17 nM | 13.8 nM | 3.89 nM | 107%
CN1CCN(c2nc(N)nc(C3CCCC3)n2)CC1 [Compound 4, 4-Cyclopentyl-6-(4-methylpiperazin-1-yl)-1,3,5-triazin-2-amine] |  | 163 to 169 °C | 68.8 ± 2 nM | 95% | 1240 nM | 102 ± 2 nM | 36.3 nM | 11.5 nM | 95%
COC(C)Cc1nc(N)nc(N2CCN(C)CC2)n1 (stereo not shown) [Compound 13, 4-(2-Methoxypropyl)-6-(4-methylpiperazin-1-yl)-1,3,5-triazin-2-amine] |  | 148 to 151 °C |  |  | 4260 nM |  |  |  | 
CCCCc1nc(N)nc(N2CCN(C)CC2)n1 [Compound 10, 4-Butyl-6-(4-methylpiperazin-1-yl)-1,3,5-triazin-2-amine] |  | 117 to 118 °C | 82 ± 5 nM | 96% | 192 nM | 445 ± 10 nM | 158 nM | 13.5 nM | 105%
CC/C=C/c1nc(N)nc(N2CCN(C)CC2)n1 [Compound 15, (E) 4-(But-1-enyl)-6-(4-methylpiperazin-1-yl)-1,3,5-triazin-2-amine] |  | 125 to 126 °C |  |  | 1490 nM |  |  |  | 
